Laboratory results taken from patent publication US9789119B2, “Cognitive function” (priority 2010, dated 2017).
“Also recorded” adds a separate entry of the source.

Columns and labels:
[1] = tested on: Ts65Dn mice; details: short-term administration of low doses; cited from earlier work
[2] = tested on: Ts65Dn mouse model of Down syndrome; test: Novel Object Recognition (NOR) task in Ts65Dn mice; type: in vivo; details: 0.3 mg/kg IP daily for two weeks, NOR two weeks after treatment end
Protocol: In this case, the effect of the noncompetitive GABAA receptor antagonist pentylenetetrazole (PTZ) on cognitive function in the Ts65Dn mouse model of Down syndrome was assessed with the Novel Object Recognition (NOR) task.
(§1) The NOR task is based on the established finding that mice preferentially explore novel objects relative to remembered objects. The test consists of a training session and a testing session. During the training session, a mouse is allowed 15 minutes to explore freely a training chamber that contains two objects. The amount of time the mouse uses to explore each object is quantified using video monitoring. The mouse is removed from the training session for 24 hours, during which time one of the objects in the training chamber is replaced with a novel object. The mouse is returned to the training chamber for the testing session, during which video monitoring is again used to quantify the amount of time the mouse uses to explore each object.
Ts65Dn mice and wild-type (2N) controls were maintained on a 12:12 light:dark (LD) cycle. At three months of age, their NOR task performance was determined. The animals then received daily intraperitoneal (IP) injections of pentylenetetrazole (PTZ; 0.3 mg/kg) for two weeks (“treatment”). […] Two weeks after treatment end, the NOR task performance of all mice was again determined. […]

[3] = tested on: wild-type (2N) mice; test: Novel Object Recognition (NOR) task in wild-type (2N) mice; type: in vivo, mouse; details: 0.3 mg/kg IP daily for two weeks, light cycle (FIG. 1 panel B)
Protocol: as §1
Ts65Dn mice and wild-type (2N) controls were maintained on a 12:12 light:dark (LD) cycle. At three months of age, their NOR task performance was determined. The animals then received daily intraperitoneal (IP) injections of pentylenetetrazole (PTZ; 0.3 mg/kg) for two weeks (“treatment”). A control group received vehicle control (saline; NaCl) only for the same duration. The IP injections occurred near the middle of the light phase or during the dark phase of a LD cycle. Two weeks after treatment end, the NOR task performance of all mice was again determined. All NOR tasks were performed during the light phase of a LD cycle. […]

Row | Compound | cognitive function [1] | hippocampal LTP induction [1] | performance in the Novel Object Recognition (NOR) task ([2]; dark phase (wakefulness)) | performance in the Novel Object Recognition (NOR) task ([2]; middle of light phase (sleep)) | time spent exploring objects in NOR task [3]
1 | CC(C)(C)[C@]1(O)CC2OC(=O)CC23C(=O)OC2OC(=O)[C@H](O)C231 (stereo partly drawn) [BB, bilobalide] | improve in a long-lasting manner | improve in a long-lasting manner |  |  | 
2 | C1CCc2nnnn2CC1 [PTZ, pentylenetetrazole] | improve in a long-lasting manner | improve in a long-lasting manner | some improvement relative to the saline-injected controls; also recorded: less effective in improving performance in the NOR task; also recorded: less effective in improving cognitive function | spent a significantly larger proportion of time of the testing session exploring the novel object; also recorded: normalizes performance in the Novel Object Recognition (NOR) task; also recorded: can improve cognition | more time on the new object during the testing session
3 | picrotoxin [PTX] | improve in a long-lasting manner | improve in a long-lasting manner |  |  | 
